The values that follow are results of earlier work, collected in US20020022041A1, “Composition and process for treating pollution” (priority 2000, published 2002).

For the data set the following is noted: non-toxic as defined by Section 313 Title III of SARA.
With `CCCCOCCOCCO` [2-, 2-(2-butoxyethoxy)ethanol], the Toxicity result is recorded as “Non toxic”. As for `CCCCCCCCCCCCOP(=O)(O)O` [Lauryl Phosphate Soln, Lauryl Phosphate], the Toxicity entry is listed as “Non toxic”. In the case of `CCCCCCCC/C=C\CCCCCCCC(=O)O` [Oleic Acid], the Toxicity entry was “Non toxic”.
